Test results reported in patent US20140113898A1, “BISARYLSULFONE AND DIALKYLARYLSULFONE COMPOUNDS AS CALCIUM CHANNEL BLOCKERS” (Zalicus Pharmaceuticals Ltd., priority 2010, published 2014).
Read-outs that look alike come from different tables or passages of the source.

Columns and labels:
Type in all cases: cell-based
CaV2.2 = biological target: T1, CaV2.2 (Homo sapiens, UniProt Q00975); assay: High-throughput CaV2.2/Kir2.3 FLIPR fluorescent assay; conditions: Fluo-4 FLIPR, closed or inactivated state not stated, read-out: FLIPR data CaV2.2
T1 construct: expressed in transfected cells; host or cells: unnamed doxycycline-inducible cell line
How it was run: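 IC50 was derived by logistic fitting of the FLIPR Fluo-4 signal recorded over 3 min after a 130 mM KCl stimulus. Before stimulation, cells (channel expression induced with doxycycline, 29 °C on assay day) were kept in pH 7.4 buffer with 2 mM KCl for the closed-state format or 12.5 mM KCl for the inactivated-state format.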

CaV3.1 = biological target: T2, CaV3.1 (Homo sapiens, UniProt O43497); assay: High-throughput CaV3.1 T-type FLIPR fluorescent assay; conditions: Fluo-4 FLIPR
T2 construct: expressed in transfected cells; host or cells: unnamed doxycycline-inducible cell line
Method: (§1) Cells were plated in 384-well, clear-bottom, black-walled, poly-D-lysine coated plates (Becton Dickinson, Franklin Lake, N.J.) 2 days prior to use in the FLIPR assay. 100 μL of cells (2.0×10^6 cell/mL) containing doxycyline (Sigma-Aldrich, 1.5 μg/mL; to induce channel expression) were added to each well using a Multidrop (Thermo Scientific, Waltham, Mass.) and were maintained in 5% CO2 incubator at 37° C. On the morning of the assay, cells were transferred to a 5% CO2 incubator at 29° C.
Cells were washed with a wash buffer containing (in mM): 118 NaCl, 18.4 HEPES, 11.7 D-glucose, 0.05 CaCl2, 0.5 MgSO4, 1 KCl, and 1.2 KH2PO4, with the pH adjusted to 7.2 with NaOH. 4.4 μM of the fluorescent indicator dye, Fluo-4 (Invitrogen), prepared in pluronic acid
(Sigma-Aldrich), was loaded into the wells and incubated for 45 minutes at 29° C. in 5% CO2. Cells were then rinsed with the following low Ca^2+ buffer (in mM): 0.34 Na2HPO4, 4.2 NaHCO3, 0.44 KH2PO4, 0.41 MgSO4, 0.49 MgCl2-6H2O, 20 HEPES, 5.5 D-Glucose, 137 NaCl, 5.3 KCl, and 0.001 CaCl2, with 0.1% BSA and the pH adjusted to 7.2 with NaOH. Concentration-dependent response curves were generated from 5 mM stock solutions prepared in DMSO (Sigma-Aldrich) and diluted in the buffer containing low Ca^2+ and incubated for 20 minutes at 29° C. in 5% CO2. Calcium entry was evoked with an addition of (in mM): 0.34 Na2HPO4, 4.2 NaHCO3, 0.44 KH2PO4, 0.41 MgSO4, 0.49 MgCl2-6H2O, 20 HEPES, 5.5 D-Glucose, 137 NaCl, 5.3 KCl, and 6 CaCl2, with 0.1% BSA and the pH adjusted to 7.2 with NaOH. A change in the Fluo-4 fluorescence signal was assessed using FLIPR^TETRA™ instrument (Molecular Devices, Sunnyvale, Calif.) for 3 minutes following the elevation of extracellular KCl using an illumination wavelength of 470-495 nm with emissions recorded at 515-575 nm.
(§2) Concentration-dependent response curves were obtained by comparing the fluorescence signal in the presence of compound and fitted with a logistic function (1) to obtain the concentration that inhibited 50% (IC50) of the RLU signal using OriginPro v.7.5 software (OriginLab, Northampton, Mass.).
(§3) To assess the quality of the FLIPR assays the Z-factor (2) was used to quantify the suitability of the assay conditions using the following equation: […]
(§4) Data are expressed as mean and standard deviation (SD).

CaV3.2 = biological target: T3, CaV3.2 (Homo sapiens, UniProt O95180); assay: High-throughput CaV3.2/Kir2.3 T-type FLIPR fluorescent assay; conditions: Fluo-4 FLIPR, closed or inactivated state not stated
T3 construct: expressed in transfected cells; host or cells: unnamed doxycycline-inducible cell line
Method: as §1, with “µL” for “μL”, “(1.2×10^6” for “(2.0×10^6”
Cells were washed with a wash buffer containing (in mM): 118 NaCl, 18.4 HEPES, 11.7 D-glucose, 2 CaCl2, 0.5 MgSO4, 4.7 KCl, and 1.2 KH2PO4, with the pH adjusted to 7.2 with
NaOH. 4.4 μM of the fluorescent indicator dye Fluo-4 (Invitrogen) prepared in pluronic acid (Sigma-Aldrich) was loaded into the wells and incubated for 45 minutes at 29° C. in 5% CO2. Cells were then rinsed with either a 2 mM KCl closed-state buffer (in mM: 138.5 NaCl, 10 HEPES, 10 D-glucose, 1 CaCl2, and 2 KCl, with the pH adjusted to 7.4 with NaOH) when performing the closed-state assay or 7.6 mM KCl inactivated-state buffer (in mM: 130.9 NaCl, 10 HEPES, 10 D-glucose, 1 CaCl2, and 7.6 mM KCl, with the pH adjusted to 7.4 with NaOH) when performing the inactivated-state assay. Concentration-dependent response curves were generated from 5 mM stock solutions prepared in DMSO (Sigma-Aldrich), diluted in either the 2 mM KCl buffer or 7.6 mM KCl buffer, and incubated for 20 minutes at 29° C. in 5% CO2. Calcium entry was evoked with an addition of either 12 mM KCl stimulation buffer (in mM: 128.5 NaCl, 10 HEPES, 10 D-glucose, 1 CaCl2, and 12 KCl, with the pH adjusted to 7.4 with NaOH) or 14.5 mM KCl stimulation buffer (in mM: 126 NaCl, 10 HEPES, 10 D-glucose, 1 CaCl2, and 14.5 KCl, with the pH adjusted to 7.4 with NaOH) for the closed-state or inactivated-state assay respectively. A change in the Fluo-4 fluorescence signal was assessed using FLIPR^TETRA™ instrument (Molecular Devices, Sunnyvale, Calif.) for 3 minutes following the elevation of extracellular KCl using an illumination wavelength of 470-495 nm with emissions recorded at 515-575 nm.
as §2, §3, §4

T3 sequence (O95180 whole entry): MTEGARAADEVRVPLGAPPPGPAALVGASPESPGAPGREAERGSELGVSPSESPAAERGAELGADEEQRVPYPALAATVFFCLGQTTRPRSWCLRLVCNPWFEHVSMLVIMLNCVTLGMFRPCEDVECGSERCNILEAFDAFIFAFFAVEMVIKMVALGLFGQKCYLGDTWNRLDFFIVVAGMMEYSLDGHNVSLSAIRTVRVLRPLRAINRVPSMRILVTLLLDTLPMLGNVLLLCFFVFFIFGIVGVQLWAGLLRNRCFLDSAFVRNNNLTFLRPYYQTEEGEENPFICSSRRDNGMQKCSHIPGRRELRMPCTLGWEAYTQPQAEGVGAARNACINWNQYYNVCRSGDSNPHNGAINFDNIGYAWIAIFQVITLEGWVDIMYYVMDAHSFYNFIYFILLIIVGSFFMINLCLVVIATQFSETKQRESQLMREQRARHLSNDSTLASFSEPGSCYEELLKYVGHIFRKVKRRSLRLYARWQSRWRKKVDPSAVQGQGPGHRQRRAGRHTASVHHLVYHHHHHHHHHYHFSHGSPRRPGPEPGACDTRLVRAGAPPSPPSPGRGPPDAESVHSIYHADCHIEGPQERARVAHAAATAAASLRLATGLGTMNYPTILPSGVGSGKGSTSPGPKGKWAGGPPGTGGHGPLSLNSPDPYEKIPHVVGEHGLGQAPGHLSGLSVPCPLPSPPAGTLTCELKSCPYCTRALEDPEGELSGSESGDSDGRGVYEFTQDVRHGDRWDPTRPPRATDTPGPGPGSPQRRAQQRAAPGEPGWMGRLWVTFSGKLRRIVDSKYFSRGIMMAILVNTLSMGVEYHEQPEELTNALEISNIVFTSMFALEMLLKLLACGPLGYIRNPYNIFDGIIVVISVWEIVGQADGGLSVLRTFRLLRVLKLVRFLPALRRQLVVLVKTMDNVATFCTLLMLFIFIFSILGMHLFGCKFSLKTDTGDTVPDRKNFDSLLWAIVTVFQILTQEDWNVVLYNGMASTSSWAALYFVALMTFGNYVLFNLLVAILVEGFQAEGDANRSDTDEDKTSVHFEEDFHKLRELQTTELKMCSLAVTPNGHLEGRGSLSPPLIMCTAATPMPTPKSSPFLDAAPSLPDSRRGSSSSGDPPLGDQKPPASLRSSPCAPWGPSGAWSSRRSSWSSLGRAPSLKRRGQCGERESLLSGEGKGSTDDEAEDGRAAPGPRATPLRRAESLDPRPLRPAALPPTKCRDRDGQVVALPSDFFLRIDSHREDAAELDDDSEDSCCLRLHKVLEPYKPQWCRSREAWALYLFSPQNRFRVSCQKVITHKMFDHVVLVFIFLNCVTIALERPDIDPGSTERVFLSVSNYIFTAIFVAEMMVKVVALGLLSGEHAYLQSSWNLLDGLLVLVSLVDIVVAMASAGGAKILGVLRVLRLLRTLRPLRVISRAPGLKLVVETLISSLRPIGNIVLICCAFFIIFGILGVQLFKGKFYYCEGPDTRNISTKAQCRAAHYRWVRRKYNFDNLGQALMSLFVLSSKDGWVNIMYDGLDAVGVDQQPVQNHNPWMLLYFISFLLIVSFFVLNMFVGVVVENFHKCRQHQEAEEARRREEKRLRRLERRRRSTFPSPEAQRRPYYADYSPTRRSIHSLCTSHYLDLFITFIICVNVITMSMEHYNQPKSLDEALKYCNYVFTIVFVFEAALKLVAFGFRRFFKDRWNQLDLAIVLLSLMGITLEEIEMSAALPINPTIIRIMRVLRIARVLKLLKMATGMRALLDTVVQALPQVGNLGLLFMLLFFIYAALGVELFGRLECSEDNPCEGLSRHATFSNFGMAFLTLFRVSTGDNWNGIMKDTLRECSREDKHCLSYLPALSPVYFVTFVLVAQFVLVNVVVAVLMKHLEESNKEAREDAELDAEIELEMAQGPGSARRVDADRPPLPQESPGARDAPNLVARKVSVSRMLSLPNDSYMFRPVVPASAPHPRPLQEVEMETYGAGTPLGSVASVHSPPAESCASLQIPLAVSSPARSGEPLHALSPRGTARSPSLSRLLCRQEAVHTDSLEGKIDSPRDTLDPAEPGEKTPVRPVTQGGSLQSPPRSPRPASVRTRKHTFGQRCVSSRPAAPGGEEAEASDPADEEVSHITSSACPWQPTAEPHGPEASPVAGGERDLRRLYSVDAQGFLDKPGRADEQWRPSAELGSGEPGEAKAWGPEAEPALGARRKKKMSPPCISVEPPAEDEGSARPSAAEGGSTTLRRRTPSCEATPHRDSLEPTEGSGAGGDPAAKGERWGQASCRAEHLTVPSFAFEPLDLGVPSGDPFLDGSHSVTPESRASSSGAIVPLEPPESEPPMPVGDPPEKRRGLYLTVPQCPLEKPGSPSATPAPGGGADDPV
T2 sequence (O43497 whole entry): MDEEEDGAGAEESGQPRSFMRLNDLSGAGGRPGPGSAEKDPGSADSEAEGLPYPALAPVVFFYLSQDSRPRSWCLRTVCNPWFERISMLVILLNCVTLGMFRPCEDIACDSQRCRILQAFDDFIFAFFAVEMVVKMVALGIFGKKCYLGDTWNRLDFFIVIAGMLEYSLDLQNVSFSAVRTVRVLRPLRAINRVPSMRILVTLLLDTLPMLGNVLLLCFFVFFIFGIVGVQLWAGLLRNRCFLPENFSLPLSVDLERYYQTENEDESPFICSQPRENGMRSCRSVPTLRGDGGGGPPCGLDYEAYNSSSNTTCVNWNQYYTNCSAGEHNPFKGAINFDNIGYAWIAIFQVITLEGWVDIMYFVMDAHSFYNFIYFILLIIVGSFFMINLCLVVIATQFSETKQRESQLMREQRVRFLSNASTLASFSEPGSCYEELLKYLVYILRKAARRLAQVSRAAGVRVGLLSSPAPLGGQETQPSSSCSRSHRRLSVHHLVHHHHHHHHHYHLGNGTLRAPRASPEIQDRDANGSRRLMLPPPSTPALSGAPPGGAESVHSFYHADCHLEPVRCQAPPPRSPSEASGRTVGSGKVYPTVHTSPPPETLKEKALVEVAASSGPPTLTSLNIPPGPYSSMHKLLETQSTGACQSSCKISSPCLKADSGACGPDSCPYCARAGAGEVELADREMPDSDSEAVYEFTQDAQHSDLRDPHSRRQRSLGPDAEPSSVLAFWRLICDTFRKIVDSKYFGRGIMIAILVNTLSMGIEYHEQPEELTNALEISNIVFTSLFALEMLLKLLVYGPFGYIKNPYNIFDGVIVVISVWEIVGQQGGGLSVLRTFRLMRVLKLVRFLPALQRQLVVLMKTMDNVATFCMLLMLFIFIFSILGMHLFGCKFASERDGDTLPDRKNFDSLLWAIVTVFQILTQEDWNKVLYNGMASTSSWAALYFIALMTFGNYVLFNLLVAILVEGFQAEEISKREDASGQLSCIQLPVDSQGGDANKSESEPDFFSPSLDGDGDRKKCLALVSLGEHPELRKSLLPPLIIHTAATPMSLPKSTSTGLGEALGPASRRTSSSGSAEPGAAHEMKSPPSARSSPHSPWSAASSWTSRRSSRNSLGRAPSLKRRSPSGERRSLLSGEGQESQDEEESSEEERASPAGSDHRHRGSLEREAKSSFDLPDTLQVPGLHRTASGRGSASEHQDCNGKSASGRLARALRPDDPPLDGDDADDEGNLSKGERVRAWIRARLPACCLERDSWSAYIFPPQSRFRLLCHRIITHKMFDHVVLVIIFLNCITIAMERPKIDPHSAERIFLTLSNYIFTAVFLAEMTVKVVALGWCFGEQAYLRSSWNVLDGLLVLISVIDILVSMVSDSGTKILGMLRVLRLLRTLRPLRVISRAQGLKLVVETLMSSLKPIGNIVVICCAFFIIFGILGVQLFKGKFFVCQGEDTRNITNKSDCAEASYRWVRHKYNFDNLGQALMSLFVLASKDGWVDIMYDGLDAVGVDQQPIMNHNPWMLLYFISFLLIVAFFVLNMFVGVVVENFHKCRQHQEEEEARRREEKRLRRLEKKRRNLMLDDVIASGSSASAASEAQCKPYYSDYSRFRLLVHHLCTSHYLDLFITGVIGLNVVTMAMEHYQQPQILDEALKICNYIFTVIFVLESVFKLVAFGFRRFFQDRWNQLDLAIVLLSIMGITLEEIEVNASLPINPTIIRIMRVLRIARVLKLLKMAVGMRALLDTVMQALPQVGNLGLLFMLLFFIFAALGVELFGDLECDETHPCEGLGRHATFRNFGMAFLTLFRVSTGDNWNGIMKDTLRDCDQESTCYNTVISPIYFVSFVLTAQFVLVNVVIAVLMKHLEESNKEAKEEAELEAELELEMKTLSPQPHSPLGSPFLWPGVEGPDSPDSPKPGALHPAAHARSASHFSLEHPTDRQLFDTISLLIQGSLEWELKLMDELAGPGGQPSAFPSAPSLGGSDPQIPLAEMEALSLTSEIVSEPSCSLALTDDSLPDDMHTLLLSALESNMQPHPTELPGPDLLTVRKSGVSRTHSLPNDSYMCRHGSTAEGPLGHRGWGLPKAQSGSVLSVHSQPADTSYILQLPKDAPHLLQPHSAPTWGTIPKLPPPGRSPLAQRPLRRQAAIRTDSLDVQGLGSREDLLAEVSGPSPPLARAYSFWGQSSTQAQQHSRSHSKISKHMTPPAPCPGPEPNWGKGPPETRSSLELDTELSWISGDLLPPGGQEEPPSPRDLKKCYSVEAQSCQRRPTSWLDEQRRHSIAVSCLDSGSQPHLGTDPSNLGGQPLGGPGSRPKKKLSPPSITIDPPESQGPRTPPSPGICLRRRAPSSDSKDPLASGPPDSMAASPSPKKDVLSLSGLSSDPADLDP

Row | IC50 (CaV2.2; Table 4) | IC50 (CaV3.1; Table 4) | IC50 (CaV3.2; Table 4) | IC50 (CaV2.2; Table 5) | IC50 (CaV3.1; Table 5) | IC50 (CaV3.2; Table 5) | Compound
1 | 0.82 µM | 1.63 µM | 1.45 µM |  |  |  | CS(=O)(=O)c1cc(C(=O)NCc2ccc(S(=O)(=O)c3cccc(C(F)(F)F)c3)cn2)cc(C(F)(F)F)n1 [Compound 94, 2-(methylsulfonyl)-6-(trifluoromethyl)-N-((5-((3-(trifluoromethyl)phenyl)sulfonyl)pyridin-2-yl)methyl)isonicotinamide]
2 |  |  |  | 0.66 µM | 4.9 µM | 1.15 µM | CC(C)(C(=O)Nc1ccc(Oc2ccc(F)c(Cl)c2)nc1)S(=O)(=O)c1cccc(OC(F)(F)F)c1 [Compound 121, N-(6-(3-chloro-4-fluorophenoxy)pyridin-3-yl)-2-methyl-2-((3-(trifluoromethoxy)phenyl)sulfonyl)propanamide]
3 |  |  |  | 0.2 µM | 5.8 µM | 4.31 µM | CC(C)(C(=O)Nc1ccc(Oc2ccc(F)c(C(F)(F)F)c2)nc1)S(=O)(=O)c1cccc(OC(F)(F)F)c1 [Compound 119, N-(6-(4-fluoro-3-(trifluoromethyl)phenoxy)pyridin-3-yl)-2-methyl-2-((3-(trifluoromethoxy)phenyl)sulfonyl)propanamide]
4 |  |  |  | 0.7 µM | 4.89 µM | 1.64 µM | CC(C)(C(=O)Nc1ccc(Oc2ccc(C(F)(F)F)nc2)nc1)S(=O)(=O)c1cccc(OC(F)(F)F)c1 [Compound 122, 2-methyl-2-((3-(trifluoromethoxy)phenyl)sulfonyl)-N-(6-((6-(trifluoromethyl)pyridin-3-yl)oxy)pyridin-3-yl)propanamide]
5 | 0.17 µM | 1.69 µM | 1.26 µM |  |  |  | CC(C)(C(=O)NCc1ccc(S(=O)(=O)c2cccc(C(F)(F)F)c2)cn1)S(=O)(=O)c1cccc(C(F)(F)F)c1 [Compound 87, 2-methyl-2-((3-(trifluoromethyl)phenyl)sulfonyl)-N-((5-((3-(trifluoromethyl)phenyl)sulfonyl)pyridin-2-yl)methyl)propanamide]
6 | 0.97 µM | 1.58 µM | 1.74 µM |  |  |  | O=C(NCc1ccc(S(=O)(=O)c2cccc(C(F)(F)F)c2)cn1)c1cc(F)cc(Cl)c1 [Compound 89, 3-chloro-5-fluoro-N-((5-((3-(trifluoromethyl)phenyl)sulfonyl)pyridin-2-yl)methyl)benzamide]
7 |  |  |  | 0.1 µM | 1.41 µM | 0.63 µM | CC(C)(C(=O)NCc1ccc(S(=O)(=O)c2cccc(C(F)(F)F)c2)cc1)S(=O)(=O)c1cccc(C(F)(F)F)c1 [Compound 225, 2-methyl-2-((3-(trifluoromethyl)phenyl)sulfonyl)-N-(4-((3-(trifluoromethyl)phenyl)sulfonyl)benzyl)propanamide]

More lines, now with the values behind:

Row | Compound | IC50 (CaV2.2; Table 4) | IC50 (CaV3.1; Table 4) | IC50 (CaV3.2; Table 4) | IC50 (CaV2.2; Table 5) | IC50 (CaV3.1; Table 5) | IC50 (CaV3.2; Table 5)
8 | CS(=O)(=O)c1cc(C(=O)NCc2cccc(S(=O)(=O)c3cccc(C(F)(F)F)c3)c2)cc(C(F)(F)F)n1 [Compound 23, 2-(methylsulfonyl)-6-(trifluoromethyl)-N-(3-((3-(trifluoromethyl)phenyl)sulfonyl)benzyl)isonicotinamide] | 0.49 µM | 2.05 µM | 0.57 µM |  |  | 
9 | CS(=O)(=O)c1cc(C(F)(F)F)ccc1C(=O)NCc1ccc(S(=O)(=O)c2cccc(C(F)(F)F)c2)cc1 [Compound 11, 2-(methylsulfonyl)-4-(trifluoromethyl)-N-(4-((3-(trifluoromethyl)phenyl)sulfonyl)benzyl)benzamide] | 0.41 µM | 1.07 µM | 0.59 µM |  |  | 
10 | CS(=O)(=O)c1cc(C(F)(F)F)cnc1C(=O)NCc1ccccc1S(=O)(=O)c1cccc(C(F)(F)F)c1 [Compound 43, 3-(methylsulfonyl)-5-(trifluoromethyl)-N-(2-((3-(trifluoromethyl)phenyl)sulfonyl)benzyl)picolinamide] | 0.67 µM | 1.42 µM | 3.38 µM |  |  | 
11 | O=C(NCc1ccccc1S(=O)(=O)c1cccc(C(F)(F)F)c1)c1cc(F)cc(Cl)c1 [Compound 37, 3-chloro-5-fluoro-N-(2-((3-(trifluoromethyl)phenyl)sulfonyl)benzyl)benzamide] | 0.68 µM | 1.42 µM | 1.61 µM |  |  | 
12 | CS(=O)(=O)c1cc(C(F)(F)F)ccc1C(=O)NCc1cccc(S(=O)(=O)c2cccc(C(F)(F)F)c2)c1 [Compound 28, 2-(methylsulfonyl)-4-(trifluoromethyl)-N-(3-((3-(trifluoromethyl)phenyl)sulfonyl)benzyl)benzamide] | 0.19 µM | 1.51 µM | 0.73 µM |  |  | 
13 | O=C(NCc1ccc(S(=O)(=O)c2cccc(C(F)(F)F)c2)cc1)c1ccc(Cl)c(OC(F)(F)F)c1 [Compound 15, 4-chloro-3-(trifluoromethoxy)-N-(4-((3-(trifluoromethyl)phenyl)sulfonyl)benzyl)benzamide] | 0.74 µM | 1.39 µM | 0.49 µM |  |  | 
14 | O=C(NCc1cccc(S(=O)(=O)c2cccc(C(F)(F)F)c2)c1)c1ccnc(C(F)(F)F)c1 [Compound 31, 2-(trifluoromethyl)-N-(3-((3-(trifluoromethyl)phenyl)sulfonyl)benzyl)isonicotinamide] | 0.39 µM | 1.75 µM | 0.73 µM |  |  | 
15 | O=C(NCc1cccc(S(=O)(=O)c2cccc(C(F)(F)F)c2)c1)c1cnc(C(F)(F)F)nc1 [Compound 26, 2-(trifluoromethyl)-N-(3-((3-(trifluoromethyl)phenyl)sulfonyl)benzyl)pyrimidine-5-carboxamide] | 0.58 µM | 1.88 µM | 1.18 µM |  |  | 
16 | N[C@@H]1CCCC[C@H]1C(=O)NCc1ccc(S(=O)(=O)c2cccc(C(F)(F)F)c2)cc1 [Compound 81, (1R,2R)-2-amino-N-(4-((3-(trifluoromethyl)phenyl)sulfonyl)benzyl)cyclohexanecarboxamide] | 0.68 µM | 8.24 µM | 4.56 µM |  |  | 
17 | O=C(NCc1ccc(S(=O)(=O)c2cccc(C(F)(F)F)c2)cc1)[C@@H]1C[C@@H](C2CCCCC2)CN1 [Compound 72, (2S,4S)-4-cyclohexyl-N-(4-((3-(trifluoromethyl)phenyl)sulfonyl)benzyl)pyrrolidine-2-carboxamide] | 0.76 µM | 8.9 µM | 2.32 µM |  |  | 
